In PubChem BioAssay (NCI) one finds GI50 and TGI data, which are given here for 16 compounds.

Some test systems named below: HT29 colon; HOP-92 NSCLC; DU-145 prostate; NCI-H460 lung; SF-268 CNS; NCI-H23 lung; SN12C renal; CCRF-CEM leukemia; SR leukemia.
Common to all, as to assay: NCI tumour cell line growth inhibition, 48 h

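Exposure lasted 48 hours, with cells grown in 96-well plates and compounds tested at five concentrations. Here, GI50 denotes the concentration required for 50% inhibition of growth. TGI marks complete inhibition of growth.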

For the compound `CC(=O)/C=C/C1=C(c2ccsc2)c2ccccc2CC1`, the GI50 was 54.3 µM in the assay with HT29 colon; 17.2 µM with HOP-92 NSCLC; 40.8 µM in the assay with DU-145 prostate; 34.4 µM in the assay on NCI-H460 lung; 19.5 µM with SF-268 CNS; 20.3 µM in the assay on NCI-H23 lung. The GI50 in the assay with SN12C renal was 20.9 µM; with CCRF-CEM leukemia it was 23.6 µM. The TGI in the assay with HT29 colon is greater than 100 µM; in the assay on HOP-92 NSCLC, 50.6 µM; in the assay on DU-145 prostate, greater than 100 µM; in the assay on NCI-H460 lung, greater than 100 µM; with SF-268 CNS, 41.1 µM; with NCI-H23 lung it was 39.6 µM. Also, the TGI in the assay on SN12C renal is 47.2 µM; with CCRF-CEM leukemia it was 47.6 µM.

For `CCOc1ccc(NC(=O)CCC(=O)NN)cc1`, the TGI in the assay with HT29 colon, with HOP-92 NSCLC, with NCI-H460 lung, with SF-268 CNS, with NCI-H23 lung and in the assay on SN12C renal was greater than 100 µM throughout. In the assay with CCRF-CEM leukemia, this compound came in with a TGI greater than 100 µM.

With `O=C1CCC(=O)C(C(=O)CCC(=O)Nc2cccc(Cl)c2)C1` (stereo unspecified), the TGI with HT29 colon, with HOP-92 NSCLC, in the assay with SR leukemia, in the assay on NCI-H460 lung, with NCI-H23 lung and with SN12C renal was greater than 100 µM throughout. The same compound gave a TGI in the assay on CCRF-CEM leukemia greater than 100 µM.

For the compound `N#C/C(=C\c1ccc(O)cc1O)C(N)=O`, the TGI in the assay on HT29 colon is 98.2 µM; in the assay on HOP-92 NSCLC, greater than 100 µM; in the assay with NCI-H460 lung it was greater than 100 µM; with SF-268 CNS it was greater than 100 µM; in the assay on NCI-H23 lung it was greater than 100 µM; in the assay with SN12C renal, greater than 100 µM. The compound further had a TGI with CCRF-CEM leukemia greater than 100 µM.

In the case of `COC(=O)/C(=N\O)C(C(=O)C=C(C)C)C(=O)C(=O)Nc1ccccc1C` (stereo unspecified), the TGI in the assay on HT29 colon, with HOP-92 NSCLC, with SR leukemia, with NCI-H460 lung, in the assay with SF-268 CNS and in the assay on NCI-H23 lung was greater than 100 µM throughout. Besides, the TGI in the assay with SN12C renal and in the assay with CCRF-CEM leukemia was greater than 100 µM throughout.

`CC(C)(C)C(=O)[CH-]C(=O)C(F)(F)C(F)(F)C(F)(F)F.CC(C)(C)C(=O)[CH-]C(=O)C(F)(F)C(F)(F)C(F)(F)F.[O-]CC1OC(O)C(O)C(O)C1O.[O-]CC1OC(O)C(O)C(O)C1O.[Ti+4]`: the TGI with HT29 colon is greater than 100 µM; in the assay on HOP-92 NSCLC it was 96.9 µM; in the assay with SR leukemia it was greater than 100 µM; with NCI-H460 lung it was greater than 100 µM; in the assay with SF-268 CNS, greater than 100 µM; in the assay with NCI-H23 lung, greater than 100 µM. Moreover, the TGI in the assay with SN12C renal and in the assay with CCRF-CEM leukemia was greater than 100 µM each time.

In the case of `COC(=O)C(=O)C1CCCCC(C2=NC3NN=C(N)N3C2=O)C1=O` (stereo unspecified), the TGI in the assay with HT29 colon, in the assay with HOP-92 NSCLC, in the assay with SR leukemia, with NCI-H460 lung, in the assay on SF-268 CNS and in the assay on NCI-H23 lung was greater than 100 µM in each case. Besides, the TGI in the assay on SN12C renal and with CCRF-CEM leukemia was greater than 100 µM throughout.

Turning to `CCOC(=O)C1(Cc2ccc3ccccc3c2)CCCCCN1` (stereo unspecified), the TGI in the assay on HT29 colon is 26.9 µM; in the assay on HOP-92 NSCLC it was 55.4 µM; in the assay on NCI-H460 lung it was 34.7 µM; with SF-268 CNS it was greater than 100 µM; with NCI-H23 lung it was greater than 100 µM; in the assay on SN12C renal, greater than 100 µM.

In the case of `CP(C)C.[Ag][I]`, the TGI in the assay on HT29 colon, in the assay on HOP-92 NSCLC, in the assay with SR leukemia, with NCI-H460 lung, in the assay with SF-268 CNS and in the assay on NCI-H23 lung was greater than 100 µM each time. For the same compound, the TGI with SN12C renal and with CCRF-CEM leukemia was greater than 100 µM throughout.

On to `Cc1nc(N)sc1C(=O)/C=C/c1ccc([N+](=O)[O-])cc1`, for which the TGI in the assay on HT29 colon, in the assay on HOP-92 NSCLC, with NCI-H460 lung, in the assay with SF-268 CNS, in the assay with NCI-H23 lung and in the assay with SN12C renal was greater than 100 µM each time. The same compound gave a TGI with CCRF-CEM leukemia greater than 100 µM.

Take `COC(=O)C1=Cc2c(OC)cc(OC)c(OC)c2[C@H](c2cc(OC)c(OC)cc2OC)C1C(=O)OC` (stereo partly specified): the TGI in the assay on HT29 colon, in the assay with HOP-92 NSCLC, in the assay with NCI-H460 lung, in the assay on SF-268 CNS, with NCI-H23 lung and with SN12C renal was greater than 100 µM throughout. Moreover, in the assay on CCRF-CEM leukemia, the TGI is greater than 100 µM.

Consider `C=C1CC(C/C=C(\C)CC2CC(=C)C(=O)O2)OC1=O` (stereo unspecified), for which the TGI in the assay with HT29 colon, in the assay with HOP-92 NSCLC, in the assay with SR leukemia, in the assay with NCI-H460 lung, in the assay with SF-268 CNS and in the assay with NCI-H23 lung was greater than 100 µM in each case. Also, the TGI in the assay with SN12C renal and with CCRF-CEM leukemia was greater than 100 µM throughout.

`N#CC12Cc3ccc4c(c3-c3cccc(c31)CCN2C(=O)c1ccccc1)OCO4` (stereo unspecified): the TGI with HT29 colon, with HOP-92 NSCLC, in the assay with SR leukemia, in the assay with SF-268 CNS, in the assay with NCI-H23 lung and with SN12C renal was greater than 100 µM in each case. For the same compound, in the assay on CCRF-CEM leukemia, the TGI is greater than 100 µM.

Regarding `CC[O-].CC[O-].O=C([CH-]C(=O)c1ccccc1)c1ccccc1.O=C([CH-]C(=O)c1ccccc1)c1ccccc1.[Ti+4]`, the GI50 in the assay on HT29 colon is greater than 100 µM; in the assay with HOP-92 NSCLC, 44.3 µM; in the assay with SR leukemia it was 62.4 µM; in the assay on NCI-H460 lung it was 44.3 µM; in the assay on SF-268 CNS, greater than 100 µM; in the assay on NCI-H23 lung it was greater than 100 µM. Besides, the GI50 in the assay on SN12C renal was greater than 100 µM. For the same compound, the TGI with HT29 colon, with HOP-92 NSCLC, with SR leukemia, with NCI-H460 lung, with SF-268 CNS and in the assay with NCI-H23 lung was greater than 100 µM each time. Further, the TGI with SN12C renal was greater than 100 µM.

As to `Cc1cccc(N=C2NC(=O)C(CC(=O)Nc3ccc(Cl)cc3C)S2)c1` (stereo unspecified), the TGI with HT29 colon, in the assay on NCI-H460 lung, with SF-268 CNS, in the assay with NCI-H23 lung, in the assay with SN12C renal and in the assay with CCRF-CEM leukemia was greater than 100 µM in each case.

On to `Cc1cc(=O)[nH]c(CNC(=O)Cc2ccccc2)n1`, for which the TGI with HT29 colon, in the assay with HOP-92 NSCLC, in the assay with NCI-H460 lung, in the assay on SF-268 CNS, in the assay on NCI-H23 lung and in the assay with SN12C renal was greater than 100 µM each time. In addition, the TGI with CCRF-CEM leukemia is greater than 100 µM.
